Assay results from patent US12122763B2, “Substituted piperidines for androgen receptor degradation” (UBIX THERAPEUTICS, INC., priority 2020, dated 2024).

Biological target: T1, Androgen Receptor (AR) protein (Homo sapiens, UniProt P10275, T878A)
T1 construct: endogenous in cells; host or cells: LNCaP
Test: Androgen Receptor (AR) protein degradation assay in LNCaP cells, western blotting
Type: cell-based
Details: 20 h; for inhibition at 0.01 µM: 0.01 μM compound; for inhibition at 0.1 µM: 0.1 μM compound; for inhibition at 1 µM: 1 μM compound
Protocol: Experimental Example 1: Androgen Receptor (AR) Protein Degradation Assay
After treating LNCaP cells with the synthesized Example compound, the amount of AR protein present in the cells was measured. The amount of AR protein was measured using western blotting detection method. The protocol of the experiment using LNCaP cells was as follows:
[Culture] LNCaP cells were resuspended in RPMI1640 MEDIUM (Hyclone, SH30027.01), 10% FBS (Hyclone, SV30207.02), and 1% Penicillin-streptomycin (Welgene, LS 202-02) media to be 3×10^5/mL. Then, 1 mL each was seeded in a 12-well plate. After that, they were cultured for 3 days.
[Compound treatment] 10 μl of 0.1, 1, 10, and 100 μM compound, which is the final compound treatment concentration and a 100× stock of 0.001, 0.01, 0.1, and 1 μM, was added in 1 ml media of each well, and 20 hours later, the cells were harvested.
[Cell Lysis] Cell pellets were suspended using 1% SDS lysis buffer (50 mM Tris, 1 mM EDTA, 1% SDS, pH 8.0, 0.5 mM PMSF, 1× Protease/Phosphatase inhibitor Cocktail (Cell Signaling Technology, 5872s)), and sonication (70% AMP, 5 cycles (30 sec ON/59 sec OFF)) was performed. Cell lysate was obtained after centrifugation at 4° C., 15000 g, for 20 minutes.
[Protein quantification] A BCA protein assay (SMART™ BCA Protein Assay Kit, iNtRON Biotechnology, 21071) was performed using a 96-well microplate. After adding 5 μl cell lysate and 5 μl 1% SDS lysis buffer to each well of the 96-well plate, 200 μl of BCA reagent (Reagent A:Reagent B=50:1) was additionally added. After incubation at 37° C. for 30 minutes, it was cooled at room temperature for 10 minutes. Then, absorbance was measured at a wavelength of 562 nm. The unknown protein concentration was measured using a BSA standard curve (0, 0.125, 0.25, 0.5, 1, 2 mg/ml). Western blotting samples were prepared by mixing cell lysate, 1% SDS lysis buffer, 4× Bolt™ LDS Sample buffer (Invitrogen, B0008), and 10× Bolt™ Sample Reducing Agent (Invitrogen, B0009) and boiling the mixture at 70° C. for 10 minutes.
[Electrophoresis] After loading 8 μg of protein sample into each well of Bolt™ 4 to 12%, Bis-Tris, 1.0 mm Mini Protein Gel, 17-well (Invitrogen, NW04127BOX), Bolt™ MES SDS Running Buffer (Invitrogen, B0002) was used for electrophoresis at 200V (constant V) for 50 minutes.
[Transfer] Using electrophoresis gel and Trans-Blot® Turbo™ Transfer Starter System (Bio-RAD, #17001918, Mini Nitrocellulose), transfer proceeded for 15 minutes under the condition of 1.3A (Constant A) and 25V (Limit V). To confirm protein transfer, 15 ml of Ponceau S solution (Sigma, P7170-1L) was used for staining for 1 minute, followed by washing to confirm the degree of transfer.
[Blocking] Membranes for AR detection were blocked for 45 minutes with 5% skim milk/0.2% TBST (Skim milk: BD, 232100/20× TBS: Biosesang, TR2008-100-00/10% Tween 20 Solution: Bio-RAD, #161-0781). Membranes for GAPDH and β-actin detection were blocked for 45 minutes with Odyssey blocking buffer: 0.1% TBST=1:1 (Odyssey blocking buffer: Li-COR Biosciences, 927-50000).
[Antibody and detection] The primary AR antibody (Androgen Receptor: CST, 5153s) was mixed with 5% skim milk/0.2% TBST at a ratio of 1:1000 and attached for 3 hours at room temperature. Primary β-actin antibody (GeneTex, 629630) was mixed with 5% BSA/0.2% TBST at a ratio of 1:2000 and attached for 3 hours at room temperature. Primary GAPDH antibody (GeneTex, 100118) was mixed with 5% BSA/0.2% TBST at a ratio of 1:2000 and attached for 3 hours at room temperature. After 3 hours, it was washed 3 times every 5 minutes using TBST (0.2% Tween 20). Anti-rabbit IgG, HRP-linked Antibody (CST, 7074s), secondary antibody for the AR antibody was mixed with 5% skim milk/0.2% TBST at a ratio of 1:5000 and attached for 45 minutes at room temperature. […]

T1 sequence (P10275 whole entry T878A): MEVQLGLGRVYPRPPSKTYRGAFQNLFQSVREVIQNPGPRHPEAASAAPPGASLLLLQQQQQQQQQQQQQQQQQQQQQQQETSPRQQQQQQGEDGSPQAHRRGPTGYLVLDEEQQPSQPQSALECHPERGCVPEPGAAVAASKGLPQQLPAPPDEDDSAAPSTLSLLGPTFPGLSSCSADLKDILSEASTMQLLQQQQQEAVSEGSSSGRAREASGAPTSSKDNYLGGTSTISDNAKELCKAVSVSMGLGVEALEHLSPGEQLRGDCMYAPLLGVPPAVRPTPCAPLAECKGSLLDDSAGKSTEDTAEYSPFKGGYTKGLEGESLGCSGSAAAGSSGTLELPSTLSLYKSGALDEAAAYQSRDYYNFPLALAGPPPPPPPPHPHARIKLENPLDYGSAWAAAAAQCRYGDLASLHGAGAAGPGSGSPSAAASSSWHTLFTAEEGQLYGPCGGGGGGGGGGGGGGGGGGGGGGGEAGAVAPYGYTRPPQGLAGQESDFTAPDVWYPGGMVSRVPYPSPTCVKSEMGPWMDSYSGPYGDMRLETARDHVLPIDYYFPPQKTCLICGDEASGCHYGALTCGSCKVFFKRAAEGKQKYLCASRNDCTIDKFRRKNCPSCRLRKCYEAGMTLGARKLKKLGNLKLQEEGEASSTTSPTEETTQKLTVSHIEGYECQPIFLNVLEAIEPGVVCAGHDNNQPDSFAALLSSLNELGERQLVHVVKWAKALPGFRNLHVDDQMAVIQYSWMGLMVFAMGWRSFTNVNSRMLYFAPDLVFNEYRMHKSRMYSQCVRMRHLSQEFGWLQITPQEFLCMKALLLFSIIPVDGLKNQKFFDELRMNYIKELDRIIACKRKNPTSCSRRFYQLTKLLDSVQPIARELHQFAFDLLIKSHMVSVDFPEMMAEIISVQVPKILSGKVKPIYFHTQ
T1 sequence (Q96SW2 whole entry partner): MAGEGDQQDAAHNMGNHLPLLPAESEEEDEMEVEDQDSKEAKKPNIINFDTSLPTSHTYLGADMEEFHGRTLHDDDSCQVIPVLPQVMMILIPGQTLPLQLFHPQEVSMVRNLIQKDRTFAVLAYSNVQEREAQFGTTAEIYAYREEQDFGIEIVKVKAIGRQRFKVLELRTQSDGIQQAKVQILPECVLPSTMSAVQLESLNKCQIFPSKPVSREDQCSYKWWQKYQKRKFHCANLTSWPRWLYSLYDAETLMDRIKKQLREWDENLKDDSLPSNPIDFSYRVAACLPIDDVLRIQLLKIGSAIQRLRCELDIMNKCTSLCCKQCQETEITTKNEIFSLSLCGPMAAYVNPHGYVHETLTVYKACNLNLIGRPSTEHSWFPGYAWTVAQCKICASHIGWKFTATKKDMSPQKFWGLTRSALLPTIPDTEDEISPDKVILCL

Q: How did the inhibition at 0.01 µM turn out when C[C@@H]1CN(CC2CCN(c3ccc(NC(=O)C4CCN(c5ccc(C#N)c(C(F)(F)F)c5)CC4)nc3)CC2)CCN1CC1CCN(c2ccc3c(c2)C(=O)N(C2CCC(=O)NC2=O)C3=O)CC1 (stereo partly drawn) [Example 25, 1-(4-cyano-3-(trifluoromethyl)phenyl)-N-(5-(4-(((3R)-4-((1-(2-(2,6-dioxopiperidin-3-yl)-1,3-dioxoisoindolin-5-yl)piperidin-4-yl)methyl)-3-methylpiperazin-1-yl)methyl)piperidin-1-yl)pyridin-2-yl)piperidine-4-carboxamide] was run?
A: 73%

Q: What about the inhibition at 0.1 µM of the same molecule?
A: 98%

Q: What about the inhibition at 1 µM of the same molecule?
A: 98%

Q: For C[C@@H]1CN(CC2CCN(c3ccc(NC(=O)C4CCN(c5ccc(C#N)c(C(F)(F)F)c5)CC4)nc3)CC2)CCN1CC1CN(c2ccc3c(c2)C(=O)N(C2CCC(=O)NC2=O)C3=O)C1 (stereo partly drawn) [Example 26, 1-(4-cyano-3-(trifluoromethyl)phenyl)-N-(5-(4-(((3R)-4-((1-(2-(2,6-dioxopiperidin-3-yl)-1,3-dioxoisoindolin-5-yl)azetidin-3-yl)methyl)-3-methylpiperazin-1-yl)methyl)piperidin-1-yl)pyridin-2-yl)piperidine-4-carboxamide], which inhibition at 0.01 µM is on record?
A: 75%

Q: And the inhibition at 0.1 µM?
A: 98%

Q: What about the inhibition at 1 µM of the same molecule?
A: 98%

Q: What does the source list for N#Cc1ccc(N2CCC(C(=O)Nc3ccc(N4CC(CN5CCN(CC6CCN(c7ccc8c(c7)C(=O)N(C7CCC(=O)NC7=O)C8=O)CC6)CC5)C4)cn3)CC2)cc1C(F)(F)F (stereo not drawn) [Example 27, 1-(4-cyano-3-(trifluoromethyl)phenyl)-N-(5-(3-((4-((1-(2-(2,6-dioxopiperidin-3-yl)-1,3-dioxoisoindolin-5-yl)piperidin-4-yl)methyl)piperazin-1-yl)methyl)azetidin-1-yl)pyridin-2-yl)piperidine-4-carboxamide]?
A: inhibition at 0.01 µM: 78%; inhibition at 0.1 µM: 97%; inhibition at 1 µM: 97%

Q: For N#Cc1ccc(N2CCC(C(=O)Nc3ccc(N4CC(CN5CCN(C[C@H]6CCN(c7ccc8c(c7)C(=O)N(C7CCC(=O)NC7=O)C8=O)C6)CC5)C4)cn3)CC2)cc1C(F)(F)F (stereo partly drawn) [Example 28, 1-(4-cyano-3-(trifluoromethyl)phenyl)-N-(5-(3-((4-(((3R)-1-(2-(2,6-dioxopiperidin-3-yl)-1,3-dioxoisoindolin-5-yl)pyrrolidin-3-yl)methyl)piperazin-1-yl)methyl)azetidin-1-yl)pyridin-2-yl)piperidine-4-carboxamide], which inhibition at 0.01 µM is on record?
A: 82%

Q: And the inhibition at 0.1 µM?
A: 96%

Q: What about the inhibition at 1 µM of the same molecule?
A: 95%

Q: Which inhibition at 0.01 µM does the source give for N#Cc1ccc(N2CCC(C(=O)Nc3ccc(N4CC(CN5CCN(C[C@@H]6CCN(c7ccc8c(c7)C(=O)N(C7CCC(=O)NC7=O)C8=O)C6)CC5)C4)cn3)CC2)cc1C(F)(F)F (stereo partly drawn) [Example 29, 1-(4-cyano-3-(trifluoromethyl)phenyl)-N-(5-(3-((4-(((3S)-1-(2-(2,6-dioxopiperidin-3-yl)-1,3-dioxoisoindolin-5-yl)pyrrolidin-3-yl)methyl)piperazin-1-yl)methyl)azetidin-1-yl)pyridin-2-yl)piperidine-4-carboxamide] here?
A: 80%

Q: And the inhibition at 0.1 µM?
A: 97%

Q: And the inhibition at 1 µM?
A: 97%

Q: What does the source list for N#Cc1ccc(N2CCC(C(=O)Nc3ccc(N4CC(CN5CCN(CC6CN(c7ccc8c(c7)C(=O)N(C7CCC(=O)NC7=O)C8=O)C6)CC5)C4)cn3)CC2)cc1C(F)(F)F (stereo not drawn) [Example 30, 1-(4-cyano-3-(trifluoromethyl)phenyl)-N-(5-(3-((4-((1-(2-(2,6-dioxopiperidin-3-yl)-1,3-dioxoisoindolin-5-yl)azetidin-3-yl)methyl)piperazin-1-yl)methyl)azetidin-1-yl)pyridin-2-yl)piperidine-4-carboxamide]?
A: inhibition at 0.01 µM: 78%; inhibition at 0.1 µM: 99%; inhibition at 1 µM: 97%

Q: What does the source list for C[C@@H]1CN(CC2CN(c3ccc4c(c3)C(=O)N(C3CCC(=O)NC3=O)C4=O)C2)CCN1CC1CN(c2ccc(NC(=O)C3CCN(c4ccc(C#N)c(C(F)(F)F)c4)CC3)nc2)C1 (stereo partly drawn) [Example 31, 1-(4-cyano-3-(trifluoromethyl)phenyl)-N-(5-(3-(((2R)-4-((1-(2-(2,6-dioxopiperidin-3-yl)-1,3-dioxoisoindolin-5-yl)azetidin-3-yl)methyl)-2-methylpiperazin-1-yl)methyl)azetidin-1-yl)pyridin-2-yl)piperidine-4-carboxamide]?
A: inhibition at 0.01 µM: 67%; inhibition at 0.1 µM: 99%; inhibition at 1 µM: 97%

Q: How did the inhibition at 0.01 µM turn out when C[C@@H]1CN(CC2CN(c3ccc(NC(=O)C4CCN(c5ccc(C#N)c(C(F)(F)F)c5)CC4)nc3)C2)CCN1CC1CN(c2ccc3c(c2)C(=O)N(C2CCC(=O)NC2=O)C3=O)C1 (stereo partly drawn) [Example 32, 1-(4-cyano-3-(trifluoromethyl)phenyl)-N-(5-(3-(((3R)-4-((1-(2-(2,6-dioxopiperidin-3-yl)-1,3-dioxoisoindolin-5-yl)azetidin-3-yl)methyl)-3-methylpiperazin-1-yl)methyl)azetidin-1-yl)pyridin-2-yl)piperidine-4-carboxamide] was run?
A: 62%

Q: What about the inhibition at 0.1 µM of the same molecule?
A: 99%

Q: What about the inhibition at 1 µM of the same molecule?
A: 99%

Q: Which results are given for N#Cc1ccc(N2CCC(C(=O)Nc3ccc(N4CCC(CN5CCN(C6CN(c7ccc8c(n7)CN(C7CCC(=O)NC7=O)C8=O)C6)CC5)CC4)cn3)CC2)cc1C(F)(F)F (stereo not drawn) [Example 33, 1-(4-cyano-3-(trifluoromethyl)phenyl)-N-(5-(4-((4-(1-(6-(2,6-dioxopiperidin-3-yl)-5-oxo-6,7-dihydro-5H-pyrrolo[3,4-b]pyridin-2-yl)azetidin-3-yl)piperazin-1-yl)methyl)piperidin-1-yl)pyridin-2-yl)piperidine-4-carboxamide]?
A: inhibition at 0.01 µM: 54%; inhibition at 0.1 µM: 90%; inhibition at 1 µM: 72%

Q: What does the source list for N#Cc1ccc(N2CCC(C(=O)Nc3ccc(N4CCC(CN5CCN(CC6CCN(c7ccc8c(n7)CN(C7CCC(=O)NC7=O)C8=O)CC6)CC5)CC4)cn3)CC2)cc1C(F)(F)F (stereo not drawn) [Example 34, 1-(4-cyano-3-(trifluoromethyl)phenyl)-N-(5-(4-((4-((1-(6-(2,6-dioxopiperidin-3-yl)-5-oxo-6,7-dihydro-5H-pyrrolo[3,4-b]pyridin-2-yl)piperidin-4-yl)methyl)piperazin-1-yl)methyl)piperidin-1-yl)pyridin-2-yl)piperidine-4-carboxamide]?
A: inhibition at 0.01 µM: 88%; inhibition at 0.1 µM: 99%; inhibition at 1 µM: 96%

Q: How did the inhibition at 0.01 µM turn out when N#Cc1ccc(N2CCC(C(=O)Nc3ccc(N4CCC(CN5CCN(C6CN(c7ccc8c(c7)C(=O)N(C7CCC(=O)NC7=O)C8=O)C6)CC5)CC4)cn3)CC2)cc1C(F)(F)F (stereo not drawn) [Example 35, 1-(4-cyano-3-(trifluoromethyl)phenyl)-N-(5-(4-((4-(1-(2-(2,6-dioxopiperidin-3-yl)-1,3-dioxoisoindolin-5-yl)azetidin-3-yl)piperazin-1-yl)methyl)piperidin-1-yl)pyridin-2-yl)piperidine-4-carboxamide] was run?
A: 71%

Q: What about the inhibition at 0.1 µM of the same molecule?
A: 97%

Q: And the inhibition at 1 µM?
A: 95%

Q: Which inhibition at 0.01 µM does the source give for N#Cc1ccc(N2CCC(C(=O)Nc3ccc(N4CC(CN5CCN(C6CN(c7ccc8c(c7)C(=O)N(C7CCC(=O)NC7=O)C8=O)C6)CC5)C4)cn3)CC2)cc1C(F)(F)F (stereo not drawn) [Example 36, 1-(4-cyano-3-(trifluoromethyl)phenyl)-N-(5-(3-((4-(1-(2-(2,6-dioxopiperidin-3-yl)-1,3-dioxoisoindolin-5-yl)azetidin-3-yl)piperazin-1-yl)methyl)azetidin-1-yl)pyridin-2-yl)piperidine-4-carboxamide] here?
A: 66%

Q: What about the inhibition at 0.1 µM of the same molecule?
A: 94%

Q: What about the inhibition at 1 µM of the same molecule?
A: 94%
